Assay results: patent US9434687B2, “Detection of synthetic cannabinoids” (priority 2011, dated 2016)

What was measured:
[1] = test system: IgG fraction of antiserum raised to Immunogen II; assay: Competitive ELISA, antibody RS1833B12 to Immunogen II, tracer ESC4555 (Example 36); format: binding, sheep
[2] = test system: antiserum raised to Immunogen II (Hapten B-BTG); assay: Competitive ELISA microtiter plate assay, antiserum raised to Immunogen II, conjugate Hapten A-HRP (Example 19); format: binding, sheep
Protocol: Aqueous solutions of the immunogens prepared in examples 5 and 13 were formulated with Freund's Complete Adjuvant (FCA) to form emulsions consisting of 2 mg/ml Immunogen I and 2 mg/ml of Immunogen II in 50% (v/v) FCA. Three sheep were immunised with each emulsion (1° immunisations), 0.25 ml being intramuscularly injected at four sites in the rump of each animal. Subsequent immunisations (boosts 2-8) contained 1 mg/ml Immunogen I and 1 mg/ml Immunogen II. All boosts were emulsified in 50% (v/v) Freund's Incomplete Adjuvant (FIA) and administered to the appropriate sheep in the same manner as the 1° immunisations, at monthly intervals. Blood sampling took place 7-14 days after each boost. Each sample was processed to produce antiserum, which was further purified by caprylic acid and ammonium sulphate precipitation to yield an immunoglobulin (Ig) fraction. The Ig fraction was evaluated by competitive ELISA microtiter plate assay, as described in example 19 below.
(a) The wells of an enhanced binding 96 well polystyrene microtiter plate were coated with the Ig fraction of the antiserum raised to Immunogen I (Hapten A-BTG—example 5) and diluted in 10 mM Tris, pH8.5 (125 μl/well). The appropriate antibody coating concentration was determined using standard ELISA checkerboard techniques. The plate was incubated for 2 hours at 37° C., washed 4 times over a 10-minute period with Tris buffered saline containing Tween 20 (TBST) and tapped dry. Standard solutions of JWH synthetic cannabinoids, metabolites and selected molecules were prepared in TBST and 50 μl of each was added to the appropriate wells. 75 μl of conjugate (Hapten A-HRP) diluted in Tris buffer containing EDTA, D-mannitol, sucrose, thimerosal and BSA, was added to each of the wells. The appropriate dilution of conjugate was also determined using standard ELISA checkerboard techniques. The plate was incubated at 25° C. for 1 hour. The excess unbound conjugate was removed by washing 6 times over a 10-minute period with TBST and tapped dry. 125 μl of tetramethylbenzedine (TMB) substrate solution was added to each well of the plate that was then incubated for 15-20 minutes in the dark at room temperature. The reaction was terminated by addition of 125 μl of 0.2M sulphuric acid to each well. The absorbance was then measured at 450 nm using a microtiter plate reader.
Employing each series of standards, calibration curves were generated and these were used to determine the specificity of the immunoassay for the JWH synthetic cannabinoids, metabolites and selected molecules. The results of this study are presented in Tables 1 to 3, cross-reactivity being calculated according to the following formula: % CR=IC50,JWH-018/IC50,CR×100
Where % CR is the percentage cross-reactivity, IC50, JWH-018 is the concentration of JWH-018 that causes 50% displacement of signal and IC50, CR is the concentration of JWH synthetic cannabinoid/metabolite/selected molecule that causes 50% displacement of signal.
Table 1: Data generated from a competitive microtiter plate assay for JWH synthetic cannabinoids and metabolites, employing antiserum raised to Immunogen II (Hapten B-BTG) and conjugate (Hapten A-HRP) as detection reagent.
(d) The resulting competitive ELISA for synthetic cannabinoids and metabolites was also employed to test for the 5-fluoropentyl derivative of JWH-018, (1-(5-fluoropentyl)indol-3yl (1-naphthyl) methanone (Table 4).

[3] = Antibody to Immunogen II, cross-reactants at 100 ng/ml, 1000 ng/ml, standard JWH-018
[4] = Table 1, CR based on 100% for JWH-018
[5] = Table 1, detecting agent derived from Hapten-A, 40 ng/ml highest concentration tested
[6] = Table 4, Immunogen II, relative to JWH-018

SMILES | % B/B0 [1, 3] [%] | % Cross-reactivity [2, 4] | IC50 [2, 5] | other results
CCCCCn1cc(C(=O)c2cccc3ccccc23)c2c(O)cccc21 [4-OH JWH-018, JWH-018 4-hydroxyindole metabolite] | 29.49 | 23.03% | 9.16 ng/mL | 
CCCCCn1cc(C(=O)c2cccc3ccccc23)c2cc(O)ccc21 [5-OH JWH-018, JWH-018 5-hydroxyindole metabolite] | 12.14 | 130.25% | 1.62 ng/mL | 
CCCCCn1cc(C(=O)c2cccc3ccccc23)c2ccc(O)cc21 [6-OH JWH-018, JWH-018 6-hydroxyindole metabolite] | 24.39 | 215.31% | 0.98 ng/mL | 
O=C(c1cccc2ccccc12)c1cn(CCCCCF)c2ccccc12 [AM-2201, 1-(5-Fluoropentyl)indol-3-yl (1-naphthyl) methanone] | 11.72 |  |  | IC50 ([2]; Table 4, Immunogen II): 0.22 ng/mL; % Cross-reactivity [2, 6]: 908.00%
O=C(c1cccc2ccccc12)c1cn(CCCCCO)c2ccccc12 [JWH-018 N-(5-hydroxypentyl) metabolite] | 53.38 | 183.48% | 1.15 ng/mL | 
O=C(O)CCCCn1cc(C(=O)c2cccc3ccccc23)c2ccccc21 [JWH-018 N-pentanoic acid metabolite] | 85.61 | 38.50% | 5.48 ng/mL | 
CCCCCn1cc(C(=O)c2cccc3ccccc23)c2ccccc21 [JWH-018] | 9.29 | 100.00% | 2.11 ng/mL | % B/B0 ([1]; JWH-018 0.625 ng/ml): 68%; % B/B0 ([1]; JWH-018 1.25 ng/ml): 53%; % B/B0 ([1]; JWH-018 2.5 ng/ml): 34%; % B/B0 ([1]; JWH-018 5 ng/ml): 25%; % B/B0 ([1]; JWH-018 10 ng/ml): 17%; % B/B0 ([1]; JWH-018 20 ng/ml): 13%; % B/B0 ([1]; JWH-018 40 ng/ml): 10%; IC50 ([1]; Table 7 standard curve, standard concentration which produces 50% B/B0): 1.333 ng/mL; IC50 ([2]; Table 4, Immunogen II): 1.97 ng/mL; % Cross-reactivity [2, 6]: 100.00%
CCCCn1cc(C(=O)c2cccc3ccccc23)c2ccccc21 [JWH-073] | 15.24 | 135.26% | 1.56 ng/mL | 
O=C(c1cccc2ccccc12)c1cn(CCN2CCOCC2)c2ccccc12 [JWH-200] | 54.02 | 127.11% | 1.66 ng/mL | 
CCCCCn1cc(C(=O)c2ccc(Cl)c3ccccc23)c2ccccc21 [JWH-398] | 30.31 | 12.02% | 17.55 ng/mL | 
O=C(c1cccc2ccccc12)c1c[nH]c2ccccc12 [N-desalkyl JWH-018, 3-(1-naphthoyl)-1H-Indole] | 99.18 | <<5.28% | >>40 ng/ml | 
